Assay results as given in patent US20090105217A1, “2-PHENYL-5-AMINO-1,3,4-OXADIAZOLES AND THEIR USE AS NICOTINIC ACETYLCHOLINE RECEPTOR LIGANDS” (priority 2007, published 2009).

Target: T1, human α7 nAChR (Homo sapiens, UniProt P36544)
T1 construct: host or cells: GH4C1 cells (pituitary tumor, immortalized cell line)
Experiment: α7 nAChR FLIPR (Fluorometric Imaging Plate Reader) Ca2+ assay, agonist EC50
Type: cell-based
Conditions: for EC50: GH4C1 cells stably transfected with human α7 nAChR, Fluo-4 Ca2+ fluorescence, Examples 194 to 205 tested as the HCl salt, read-out: pEC50 value (negative logarithm of the agonist EC50) (converted); for activity in the alpha 7 assay: alpha 7 assay described in the Examples
In short: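 GH4C1 cells stably expressing human α7 nAChR, loaded with 2 μM Fluo-4 for 45–60 min at 37 °C in HEPES buffer pH 7.3 with 2 mM CaCl2 and 2.5 mM probenecid. Peak calcium fluorescence (ex 488, em 510–580 nm) after compound addition fitted for agonist EC50, reported as pEC50.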

T1 sequence (P36544 23-502): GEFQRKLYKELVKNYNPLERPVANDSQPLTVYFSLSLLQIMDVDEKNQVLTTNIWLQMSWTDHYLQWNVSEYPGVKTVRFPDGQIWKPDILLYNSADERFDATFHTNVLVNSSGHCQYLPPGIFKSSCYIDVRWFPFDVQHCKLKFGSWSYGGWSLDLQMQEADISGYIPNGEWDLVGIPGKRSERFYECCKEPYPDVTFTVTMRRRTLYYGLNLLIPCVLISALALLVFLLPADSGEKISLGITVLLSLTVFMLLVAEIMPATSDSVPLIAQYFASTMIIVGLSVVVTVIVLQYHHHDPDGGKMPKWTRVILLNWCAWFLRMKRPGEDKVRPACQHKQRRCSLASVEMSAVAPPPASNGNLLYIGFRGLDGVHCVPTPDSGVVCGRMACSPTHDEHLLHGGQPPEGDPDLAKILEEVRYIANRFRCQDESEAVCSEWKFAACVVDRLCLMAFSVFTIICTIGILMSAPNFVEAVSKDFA

Structure (SMILES)	EC50 [nM]	activity in the alpha 7 assay
CCc1cc(NC(=O)c2ccccc2F)ccc1-c1nnc(NCCCCN2CCCC2)o1 [Example 170, N-[3-ethyl-4-(5-{[4-(1-pyrrolidinyl)butyl]amino}-1,3,4-oxadiazol-2-yl)phenyl]-2-fluorobenzamide]	≤ 100	
CN1CCCN(CCCNc2nnc(-c3ccc(NC(=O)c4ccccc4F)cc3)o2)CC1 [Example 174, 2-fluoro-N-[4-(5-{[3-(4-methylhexahydro-1H-1,4-diazepin-1-yl)propyl]amino}-1,3,4-oxadiazol-2-yl)phenyl]benzamide]	≤ 1000	
O=C(Nc1ccc(-c2nnc(NCCCN3CCCCC3)o2)cc1)c1ccco1 [Example 185, N-[4-(5-{[3-(1-piperidinyl)propyl]amino}-1,3,4-oxadiazol-2-yl)phenyl]-2-furancarboxamide]	≤ 1000	
CCOc1cc(NC(=O)C2CCCCC2)ccc1-c1nnc(NCCCN2CCCCC2)o1 [Example 189, N-[3-(ethyloxy)-4-(5-{[3-(1-piperidinyl)propyl]amino}-1,3,4-oxadiazol-2-yl)phenyl]cyclohexane-carboxamide]	≤ 1000	
O=C(Nc1ccc(-c2nnc(NCCCN3CCCCC3)o2)cc1)C1CCOCC1 [Example 193, N-[4-(5-{[3-(1-piperidinyl)propyl]amino}-1,3,4-oxadiazol-2-yl)phenyl]tetrahydro-2H-pyran-4-carboxamide]	≤ 1000	
O=C(Nc1ccc(-c2nnc(NCCCN3CCOCC3)o2)cc1)c1cccc(F)c1 [Example 195, 3-Fluoro-N-[4-(5-{[3-(4-morpholinyl)propyl]amino}-1,3,4-oxadiazol-2-yl)phenyl]benzamide]	≤ 1000	
CCN(CC)CCCNc1nnc(-c2ccc(NC(=O)c3ccc(F)cc3)cc2OC)o1 [Example 202, N-[4-(5-{[3-(Diethylamino)propyl]amino}-1,3,4-oxadiazol-2-yl)-3-(methyloxy)phenyl]-4-fluorobenzamide]	≤ 1000	
CCN(CC)CCCNc1nnc(-c2ccc(NC(=O)c3cccc(F)c3)cc2OC)o1 [Example 203, N-[4-(5-{[3-(Diethylamino)propyl]amino}-1,3,4-oxadiazol-2-yl)-3-(methyloxy)phenyl]-3-fluorobenzamide]	≤ 1000	
COc1cc(NC(=O)c2cccc(F)c2)ccc1-c1nnc(NCCCN2CCOCC2)o1 [Example 204, 3-Fluoro-N-[3-(methyloxy)-4-(5-{[3-(4-morpholinyl)propyl]amino}-1,3,4-oxadiazol-2-yl)phenyl]benzamide]	≤ 1000	
CCN(CC)CCCNc1nnc(-c2ccc(NC(=O)c3cccc(F)c3)cc2)o1 [Example 209, N-[4-(5-{[3-(diethylamino)propyl]amino}-1,3,4-oxadiazol-2-yl)phenyl]-3-fluorobenzamidetrifluoroacetate]	≤ 1000	
COc1cc(NC(=O)c2c(F)cccc2F)ccc1-c1nnc(NCCCN2CCOCC2)o1 [Example 226, 2,6-difluoro-N-[3-(methyloxy)-4-(5-{[3-(4-morpholinyl)propyl]amino}-1,3,4-oxadiazol-2-yl)phenyl]benzamidetrifluoroacetate]	≤ 1000	
COc1cc(NC(=O)CC(C)C)ccc1-c1nnc(NCCCN2CCOCC2)o1 [Example 229, 3-methyl-N-[3-(methyloxy)-4-(5-{[3-(4-morpholinyl)propyl]amino}-1,3,4-oxadiazol-2-yl)phenyl]butanamidetrifluoroacetate]	≤ 1000	
COc1cc(NC(=O)C2CCCC2)ccc1-c1nnc(NCCCN2CCOCC2)o1 [Example 234, N-[3-(methyloxy)-4-(5-{[3-(4-morpholinyl)propyl]amino}-1,3,4-oxadiazol-2-yl)phenyl]cyclopentane-carboxamidetrifluoroacetate]	≤ 1000	
CCN(CC)CCCNc1nnc(-c2ccc(NC(=O)C3CCCC3)cc2OC)o1 [Example 235, N-[4-(5-{[3-(diethylamino)propyl]amino}-1,3,4-oxadiazol-2-yl)-3-(methyloxy)phenyl]cyclo-pentanecarboxamidetrifluoroacetate]	≤ 1000	
CCN(CC)CCCNc1nnc(-c2ccc(NC(=O)c3ccc(OC)cc3)cc2)o1 [N-[4-(5-{[3-(Diethylamino)propyl]amino}-1,3,4-oxadiazol-2-yl)phenyl]-4-(methyloxy)benzamide]		not found to have activity
CCCN(CCC)CCCNc1nnc(-c2ccc(NC(=O)c3ccccc3F)cc2)o1 [N-[4-(5-{[3-(dipropylamino)propyl]amino}-1,3,4-oxadiazol-2-yl)phenyl]-2-fluorobenzamide]		not found to have activity

Continued, values first:

EC50 [nM]	activity in the alpha 7 assay	Structure (SMILES)
≤ 100		CCc1cc(NC(=O)c2ccccc2F)ccc1-c1nnc(NCCCN2CCN3CCC2CC3)o1 [Example 169, N-[4-(5-{[3-(1,4-diazabicyclo[3.2.2]non-4-yl)propyl]amino}-1,3,4-oxadiazol-2-yl)-3-ethylphenyl]-2-fluorobenzamide]
≤ 100		CCc1cc(NC(=O)c2ccccc2F)ccc1-c1nnc(NCCCCN(CC)CC)o1 [Example 171, N-[4-(5-{[4-(diethylamino)butyl]amino}-1,3,4-oxadiazol-2-yl)-3-ethylphenyl]-2-fluorobenzamide]
≤ 100		CCc1cc(NC(=O)c2ccccc2F)ccc1-c1nnc(NCCCCN2CCOCC2)o1 [Example 172, N-[3-ethyl-4-(5-{[4-(4-morpholinyl)butyl]amino}-1,3,4-oxadiazol-2-yl)phenyl]-2-fluorobenzamide]
≤ 1000		Cc1ccc(C(=O)Nc2ccc(-c3nnc(NCCCN4CCCCC4)o3)cc2)cc1 [Example 181, 4-methyl-N-[4-(5-{[3-(1-piperidinyl)propyl]amino}-1,3,4-oxadiazol-2-yl)phenyl]benzamide]
≤ 1000		Cc1cc(C(=O)Nc2ccc(-c3nnc(NCCCN4CCCCC4)o3)cc2)no1 [Example 183, 5-methyl-N-[4-(5-{[3-(1-piperidinyl)propyl]amino}-1,3,4-oxadiazol-2-yl)phenyl]-3-isoxazolecarboxamide]
≤ 100		CCOc1cc(NC(=O)c2ccccc2)ccc1-c1nnc(NCCCN2CCCCC2)o1 [Example 190, N-[3-(ethyloxy)-4-(5-{[3-(1-piperidinyl)propyl]amino}-1,3,4-oxadiazol-2-yl)phenyl]benzamide]
≤ 1000		O=C(Nc1ccc(-c2nnc(NCCCN3CCOCC3)o2)cc1)c1c(F)cccc1F [Example 194, 2,6-Difluoro-N-[4-(5-{[3-(4-morpholinyl)propyl]amino}-1,3,4-oxadiazol-2-yl)phenyl]benzamide]
≤ 1000		CCCC(=O)Nc1ccc(-c2nnc(NCCCN3CCOCC3)o2)c(OC)c1 [Example 199, N-[3-(Methyloxy)-4-(5-{[3-(4-morpholinyl)propyl]amino}-1,3,4-oxadiazol-2-yl)phenyl]butanamide]
≤ 1000		CCCC(=O)Nc1ccc(-c2nnc(NCCCN(CC)CC)o2)c(OC)c1 [Example 200, N-[4-(5-{[3-(Diethylamino)propyl]amino}-1,3,4-oxadiazol-2-yl)-3-(methyloxy)phenyl]butanamide]
≤ 1000		CCN(CC)CCCNc1nnc(-c2ccc(NC(=O)c3ccc(OC)cc3)cc2OC)o1 [Example 225, N-[4-(5-{[3-(diethylamino)propyl]amino}-1,3,4-oxadiazol-2-yl)-3-(methyloxy)phenyl]-4-(methyloxy)benzamidetrifluoroacetate]
≤ 1000		CCN(CC)CCCNc1nnc(-c2ccc(NC(=O)CC(C)C)cc2OC)o1 [Example 230, N-[4-(5-{[3-(diethylamino)propyl]amino}-1,3,4-oxadiazol-2-yl)-3-(methyloxy)phenyl]-3-methylbutanamidetrifluoroacetate]
≤ 1000		CCN(CC)CCCNc1nnc(-c2ccc(NC(=O)C3CC3)cc2OC)o1 [Example 231, N-[4-(5-{[3-(diethylamino)propyl]amino}-1,3,4-oxadiazol-2-yl)-3-(methyloxy)phenyl]cyclopro-panecarboxamidetrifluoroacetate]
	not found to have activity	CN(C)CCCN(C)c1nnc(-c2ccc(NC(=O)c3ccccc3F)cc2)o1 [N-(4-{5-[[3-(dimethylamino)propyl](methyl)amino]-1,3,4-oxadiazol-2-yl}phenyl)-2-fluorobenzamide]
	not found to have activity	O=C(Nc1ccc(-c2nnc(NCCCN3CCCC(F)(F)C3)o2)cc1)c1ccccc1F [N-[4-(5-{[3-(3,3-difluoro-1-piperidinyl)propyl]amino}-1,3,4-oxadiazol-2-yl)phenyl]-2-fluorobenzamide]
